Test results: US9908912B2, “Triclosan derivatives and uses thereof” (priority 2012, dated 2018)
≈ marks a conversion by molar mass, not a printed value.

Tests used:
[1] = test system: Crono. sakazakii ATCC 29544; assay: MIC in Nutrient Broth No. 2; format: cell-based, Cronobacter sakazakii; conditions: Nutrient Broth No. 2
Experimental: (§1) Bacteria species as indicated in Table 1 were incubated for approximately 24 hours at 37° C.
(§2) The tests were repeated with the addition of inducers. Methyl glycoside was the main inducer used, but other suitable inducers include isopropyl-β-D-thiogalactopyranoside, p-nitrophenyl-α-L-arabinopyranoside and p-nitrophenyl-β-D-xylopyranoside. Concentration of inducer in all cases was 100 μg/ml.

E. hermanii ATCC 33650 = assay: MIC in Nutrient Broth No. 2; format: cell-based, Escherichia hermanii; conditions: Nutrient Broth No. 2
Experimental: as §1, §2

[2] = test system: Kleb. pneumoniae ATCC 10031; assay: MIC in Nutrient Broth No. 2; format: cell-based, Klebsiella pneumoniae; conditions: Nutrient Broth No. 2
Experimental: as §1, §2

Staph. epidermidis = assay: MIC in Nutrient Broth No. 2; format: cell-based, Staphylococcus epidermidis; conditions: 3 strains, Nutrient Broth No. 2
Experimental: as §1, §2

[3] = test system: Staph. haemolyticus OCC 2223; assay: MIC in Nutrient Broth No. 2; format: cell-based, Staphylococcus haemolyticus; conditions: Nutrient Broth No. 2
Experimental: as §1, §2

[4] = test system: Strep. pneumoniae ATCC 6305; assay: MIC in Nutrient Broth No. 2; format: cell-based, Streptococcus pneumoniae; conditions: Nutrient Broth No. 2
Experimental: as §1, §2

Strep. viridans OCC 234 = assay: MIC in Nutrient Broth No. 2; format: cell-based, Streptococcus viridans; conditions: Nutrient Broth No. 2
Experimental: as §1, §2

S. aureus = assay: MIC in Nutrient Agar; format: cell-based, Staphylococcus aureus; conditions: 8 strains; Nutrient Agar containing 0.1 μg/ml of inducer; 37° C., 24 hours
Experimental: (§3) The triclosan-glycosides were added to Nutrient Agar (Oxoid CM0003; Thermofisher Scientific) and organisms were transferred onto the plates surface using a multi-point inoculation device (Oxoid Cathra, Thermofisher Scientific). The latter is essentially a metal plate containing a number of needles. Each needle tip (usually 36 per plate) dips into an organism suspension (in phosphate buffered saline; PBS) and the needles are then moved over the agar plate and lowered onto its surface. In this way the growth of colonies of up to 36 different organisms can be observed on one plate.
(§4) Nutrient Agar No. 2 was prepared according to the manufacturers instructions, autoclaved and cooled to 50° C. Test compounds were then added as filter sterilised solutions (50:50 deionised water:ethanol), to give final concentrations from 256 μg/ml to 0 μg/ml in doubling dilutions. […] The mixtures were swirled then four plates (25 ml molten agar) were poured for each concentration. Plates were dried in a laminar flow cabinet then inoculated with overnight cultures of organisms that had been decimally diluted twice in sterile saline solution (approximately 10^7 cfu/ml) using a multi-point inoculator. Plates were then incubated at 37° C. for 24 hours. MICs were determined as the concentration at which no growth was observed.

S. epidermidis = assay: MIC in Nutrient Agar; format: cell-based, Staphylococcus epidermidis; conditions: 3 strains; Nutrient Agar containing 0.1 μg/ml of inducer; 37° C., 24 hours
Experimental: as §3, §4

S. saprophyticus = assay: MIC in Nutrient Agar; format: cell-based, Staphylococcus saprophyticus; conditions: Nutrient Agar containing 0.1 μg/ml of inducer; 37° C., 24 hours
Experimental: as §3, §4

Str. agalactiae = assay: MIC in Nutrient Agar; format: cell-based, Streptococcus agalactiae; conditions: Nutrient Agar containing 0.1 μg/ml of inducer; 37° C., 24 hours
Experimental: as §3, §4

Str. pyogenes = assay: MIC in Nutrient Agar; format: cell-based, Streptococcus pyogenes; conditions: Nutrient Agar containing 0.1 μg/ml of inducer; 37° C., 24 hours
Experimental: as §3, §4

Ent. aerogenes = assay: MIC in Nutrient Agar; format: cell-based, Enterobacter aerogenes; conditions: Nutrient Agar containing 0.1 μg/ml of inducer; 37° C., 24 hours
Experimental: as §3, §4

Ent. cloacae = assay: MIC in Nutrient Agar; format: cell-based, Enterobacter cloacae; conditions: Nutrient Agar containing 0.1 μg/ml of inducer; 37° C., 24 hours
Experimental: as §3, §4

Bacillus cereus = assay: MIC in Nutrient Agar; format: cell-based; conditions: Nutrient Agar containing 0.1 μg/ml of inducer; 37° C., 24 hours
Experimental: as §3, §4

Bacillus subtilis = assay: MIC in Nutrient Agar; format: cell-based; conditions: Nutrient Agar containing 0.1 μg/ml of inducer; 37° C., 24 hours
Experimental: as §3, §4

Hafnia alvei = assay: MIC in Nutrient Agar; format: cell-based; conditions: Nutrient Agar containing 0.1 μg/ml of inducer; 37° C., 24 hours
Experimental: as §3, §4

Ps. aeruginosa = assay: MIC in Nutrient Agar; format: cell-based; conditions: Nutrient Agar containing 0.1 μg/ml of inducer; 37° C., 24 hours
Experimental: as §3, §4

Salmonella = assay: MIC in Nutrient Agar; format: cell-based; conditions: 11 strains; Nutrient Agar containing 0.1 μg/ml of inducer; 37° C., 24 hours
Experimental: as §3, §4

[5] = test system: Bacteria species as indicated in Table 1; assay: MIC in Nutrient Broth No. 2 (over organisms of Table 1); format: cell-based; conditions: all strains of Citrobacter freundii, Enterobacter cloacae, Escherichia coli, Escherichia hermanii, Hafnia alvei, Klebsiella, Proteus, Salmonella, Staphylococcus
Experimental: as §1, §2

Row | SMILES | MIC ([1]; with inducer 100 μg/ml) [µg/mL] | MIC ([1]; without inducer) [µg/mL] | MIC (E. hermanii ATCC 33650; with inducer 100 μg/ml) [µg/mL] | MIC (E. hermanii ATCC 33650; without inducer) [µg/mL] | MIC ([2]; with inducer 100 μg/ml) [µg/mL] | MIC ([2]; without inducer) [µg/mL] | MIC (Staph. epidermidis; with inducer 100 μg/ml) [µg/mL] | MIC (Staph. epidermidis; without inducer) [µg/mL] | MIC ([3]; with inducer 100 μg/ml) [µg/mL] | MIC ([3]; without inducer) [µg/mL] | MIC ([4]; with inducer 100 μg/ml) [µg/mL] | MIC ([4]; without inducer) [µg/mL] | MIC (Strep. viridans OCC 234; with inducer 100 μg/ml) [µg/mL] | MIC (Strep. viridans OCC 234; without inducer) [µg/mL] | MIC (S. aureus) [µg/mL] | MIC (S. epidermidis) [µg/mL] | MIC (S. saprophyticus) [µg/mL] | MIC (Str. agalactiae) [µg/mL] | MIC (Str. pyogenes) [µg/mL] | MIC (Ent. aerogenes) [µg/mL] | further results
1 | OC[C@H]1O[C@H](Oc2cc(Cl)ccc2Oc2ccc(Cl)cc2Cl)[C@H](O)[C@@H](O)[C@H]1O [α-D-Galactoside, triclosan-α-D-galactopyranoside] | 64 (≈ 142 µM) | 128 (≈ 283 µM) | 32 (≈ 70.8 µM) | 32 (≈ 70.8 µM) | 1 (≈ 2.21 µM) | 1 (≈ 2.21 µM) | 4 to 256 | 8 to 32 | 32 (≈ 70.8 µM) | 16 (≈ 35.4 µM) | 256 (≈ 567 µM) | 128 (≈ 283 µM) | >256 | >256 | 4 to 8 | 8 (≈ 17.7 µM) | 32 (≈ 70.8 µM) | >256 | >256 | 64 (≈ 142 µM) | MIC (Ent. cloacae): 32 µg/mL (≈ 70.8 µM); MIC (Bacillus cereus): >256 µg/mL; MIC (Bacillus subtilis): 128 µg/mL (≈ 283 µM); MIC (Hafnia alvei): 4 µg/mL (≈ 8.86 µM); MIC (Ps. aeruginosa): >256 µg/mL
2 | OC[C@H]1O[C@H](Oc2cc(Cl)ccc2Oc2ccc(Cl)cc2Cl)[C@H](O)[C@@H](O)[C@@H]1O [α-D-Glucoside, triclosan-α-D-glucopyranoside] | 4 (≈ 8.86 µM) | 8 (≈ 17.7 µM) | 1 (≈ 2.21 µM) | 1 (≈ 2.21 µM) | 1 (≈ 2.21 µM) | 1 (≈ 2.21 µM) | 1 (≈ 2.21 µM) | 1 (≈ 2.21 µM) | 1 (≈ 2.21 µM) | 1 (≈ 2.21 µM) | 16 (≈ 35.4 µM) | 32 (≈ 70.8 µM) | 64 (≈ 142 µM) | 128 (≈ 283 µM) | 0.25 to 1 | 0.5 to 1 | 4 (≈ 8.86 µM) | 128 (≈ 283 µM) | 64 (≈ 142 µM) | 4 (≈ 8.86 µM) | MIC (Ent. cloacae): 1 µg/mL (≈ 2.21 µM); MIC (Bacillus cereus): 64 µg/mL (≈ 142 µM); MIC (Bacillus subtilis): 16 µg/mL (≈ 35.4 µM); MIC (Hafnia alvei): 0.5 µg/mL (≈ 1.11 µM); MIC (Ps. aeruginosa): >256 µg/mL; MIC (Salmonella): 1 to 4 µg/mL
3 | OC[C@H]1O[C@@H](Oc2cc(Cl)ccc2Oc2ccc(Cl)cc2Cl)[C@H](O)[C@@H](O)[C@@H]1O [β-D-Glucoside, triclosan-β-D-glucopyranoside] | 8 (≈ 17.7 µM) | 64 (≈ 142 µM) | 2 (≈ 4.43 µM) | 16 (≈ 35.4 µM) | 0.5 (≈ 1.11 µM) | 0.5 (≈ 1.11 µM) | 0.5 to 1 | 8 to 16 | 0.5 (≈ 1.11 µM) | 16 (≈ 35.4 µM) | 64 (≈ 142 µM) | 128 (≈ 283 µM) | 128 (≈ 283 µM) | 256 (≈ 567 µM) | 4 to 8 | 8 to 16 | 32 (≈ 70.8 µM) | >256 | 64 (≈ 142 µM) | 32 (≈ 70.8 µM) | MIC (Ent. cloacae): 16 µg/mL (≈ 35.4 µM); MIC (Bacillus cereus): 256 µg/mL (≈ 567 µM); MIC (Bacillus subtilis): 256 µg/mL (≈ 567 µM); MIC (Hafnia alvei): 8 µg/mL (≈ 17.7 µM); MIC (Ps. aeruginosa): >256 µg/mL; MIC (Salmonella): 16 to 128 µg/mL
4 | OC[C@H]1O[C@H](Oc2cc(Cl)ccc2Oc2ccc(Cl)cc2Cl)[C@@H](O)[C@@H](O)[C@@H]1O [α-D-Mannoside, triclosan-α-D-mannopyranoside] | 32 (≈ 70.8 µM) | 128 (≈ 283 µM) | 8 (≈ 17.7 µM) | 16 (≈ 35.4 µM) | 2 (≈ 4.43 µM) | 4 (≈ 8.86 µM) | 4 to 8 | 4 to 8 | 8 (≈ 17.7 µM) | 8 (≈ 17.7 µM) | 128 (≈ 283 µM) | 64 (≈ 142 µM) | 128 (≈ 283 µM) | 128 (≈ 283 µM) | 4 to 8 | 8 (≈ 17.7 µM) | 32 (≈ 70.8 µM) | 128 (≈ 283 µM) | 64 (≈ 142 µM) | 64 (≈ 142 µM) | MIC (Ent. cloacae): 16 µg/mL (≈ 35.4 µM); MIC (Bacillus cereus): 128 µg/mL (≈ 283 µM); MIC (Bacillus subtilis): 256 µg/mL (≈ 567 µM); MIC (Hafnia alvei): 4 µg/mL (≈ 8.86 µM); MIC (Ps. aeruginosa): >256 µg/mL; MIC (Salmonella): 16 to 32 µg/mL; inhibition of growth at 64 μg/ml in Nutrient Broth [5]: inhibited
5 | O[C@@H]1[C@H](Oc2cc(Cl)ccc2Oc2ccc(Cl)cc2Cl)OC[C@@H](O)[C@H]1O [β-D-Arabinoside, triclosan-β-D-arabinopyranoside] | 64 (≈ 152 µM) | 128 (≈ 304 µM) | 16 (≈ 37.9 µM) | 32 (≈ 75.9 µM) | 8 (≈ 19 µM) | 4 (≈ 9.49 µM) | 4 to 64 | 8 to 16 | 16 (≈ 37.9 µM) | 128 (≈ 304 µM) | 64 (≈ 152 µM) | 64 (≈ 152 µM) | 128 (≈ 304 µM) | 128 (≈ 304 µM) | 8 to 16 | 16 (≈ 37.9 µM) | 64 (≈ 152 µM) | 128 (≈ 304 µM) | 64 (≈ 152 µM) | 64 (≈ 152 µM) | MIC (Ent. cloacae): 16 µg/mL (≈ 37.9 µM); MIC (Bacillus cereus): 256 µg/mL (≈ 607 µM); MIC (Bacillus subtilis): 256 µg/mL (≈ 607 µM); MIC (Hafnia alvei): 8 µg/mL (≈ 19 µM); MIC (Ps. aeruginosa): >256 µg/mL; MIC (Salmonella): 32 to 64 µg/mL
